Test results published in US20200017495A1, “NOVEL HETEROCYCLIC COMPOUNDS AND THEIR USE IN PREVENTING OR TREATING BACTERIAL INFECTIONS” (priority 2017, published 2020).

Tested on: Klebsiella pneumoniae (KPN) isolates
Assay: MIC of compounds alone and combined with antibacterials, broth microdilution (CLSI)
Assay type: cell-based
Method in brief: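 Broth microdilution in cation-adjusted Mueller-Hinton broth, inoculum 5.10^5 CFU/mL, 16-20 h at 35° C in ambient air, on genotyped isolates. Compound MIC, alone or with an antibacterial, taken visually as lowest concentration preventing growth; antibacterial MIC determined at each compound concentration.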

C=CC1=C(C(=O)O)N2C(=O)[C@@H](NC(=O)/C(=N\OCC(=O)O)c3csc(N)n3)[C@H]2SC1 [FIX, Cefixime]
<0.25 µg/mL: MIC ATB in combination (KPN 110376, AF2 @ 8 μg/mL) | MIC ATB in combination (KPN 160143, AF2 @ 8 μg/mL) | MIC ATB in combination (KPN 160143, AF3 @ 8 μg/mL) | MIC ATB in combination (KPN 190551, AF2 @ 8 μg/mL) | MIC ATB in combination (KPN 190551, AF3 @ 8 μg/mL) | MIC ATB in combination (KPN 200047, AF2 @ 8 μg/mL) | MIC ATB in combination (KPN 200047, AF3 @ 8 μg/mL) | MIC ATB in combination (KPN 200327, AF2 @ 8 μg/mL) | MIC ATB in combination (KPN 200327, AF3 @ 8 μg/mL) | MIC ATB in combination (KPN 260376, AF2 @ 8 μg/mL) | MIC ATB in combination (KPN 260376, AF3 @ 8 μg/mL) | MIC ATB in combination (KPN ARA, AF3 @ 8 μg/mL) | MIC ATB in combination (KPN LIB, AF2 @ 8 μg/mL) | MIC ATB in combination (KPN LIB, AF3 @ 8 μg/mL) | MIC ATB in combination (KPN UFR23, AF3 @ 8 μg/mL) | MIC ATB in combination (KPN UFR25, AF2 @ 8 μg/mL) | MIC ATB in combination (KPN UFR25, AF3 @ 8 μg/mL) | MIC ATB in combination (KPN UFR28, AF2 @ 8 μg/mL) | MIC ATB in combination (KPN UFR43, AF2 @ 8 μg/mL) | MIC ATB in combination (KPN UFR43, AF3 @ 8 μg/mL) | MIC ATB in combination (KPN UFR53, AF2 @ 8 μg/mL) | MIC ATB in combination (KPN UFR216, AF2 @ 8 μg/mL) | MIC ATB in combination (KPN UFR216, AF3 @ 8 μg/mL) | MIC ATB in combination (KPN UFR217, AF2 @ 8 μg/mL) | MIC ATB in combination (KPN UFR217, AF3 @ 8 μg/mL) | MIC ATB in combination (KPN UFR218, AF2 @ 8 μg/mL) | MIC ATB in combination (KPN UFR218, AF3 @ 8 μg/mL) | MIC ATB in combination (KPN UFR220, AF2 @ 8 μg/mL) | MIC ATB in combination (KPN UFR220, AF3 @ 8 μg/mL) | MIC ATB in combination (KPN UFR221, AF2 @ 8 μg/mL) | MIC ATB in combination (KPN UFR221, AF3 @ 8 μg/mL) | MIC ATB in combination (KPN UFR222, AF2 @ 8 μg/mL) | MIC ATB in combination (KPN UFR222, AF3 @ 8 μg/mL)
<=0.25 μg/mL: MIC ATB in combination (KPN 6299, AF2 @ 8 μg/mL) | MIC ATB in combination (KPN 6299, AF3 @ 8 μg/mL) | MIC ATB in combination (KPN 110376, AF3 @ 8 μg/mL) | MIC ATB in combination (KPN 131119, AF2 @ 8 μg/mL) | MIC ATB in combination (KPN 131119, AF3 @ 8 μg/mL) | MIC ATB in combination (KPN 190425, AF3 @ 8 μg/mL) | MIC ATB in combination (KPN 190425, CLA @ 4 μg/mL) | MIC ATB in combination (KPN 190551, CLA @ 4 μg/mL) | MIC ATB in combination (KPN 200047, CLA @ 4 μg/mL) | MIC ATB in combination (KPN 200327, CLA @ 4 μg/mL) | MIC ATB in combination (KPN 260251, AF2 @ 8 μg/mL) | MIC ATB in combination (KPN 260251, AF3 @ 8 μg/mL) | MIC ATB in combination (KPN 260376, CLA @ 4 μg/mL) | MIC ATB in combination (KPN 270077, AF3 @ 8 μg/mL) | MIC ATB in combination (KPN 700603, AF2 @ 8 μg/mL) | MIC ATB in combination (KPN ARA, AF2 @ 8 μg/mL) | MIC ATB in combination (KPN BAA-1898, AF2 @ 8 μg/mL) | MIC ATB in combination (KPN BAA-1898, AF3 @ 8 μg/mL) | MIC ATB in combination (KPN LIB, CLA @ 4 μg/mL) | MIC ATB in combination (KPN UFR22_O, AF2 @ 8 μg/mL) | MIC ATB in combination (KPN UFR22_O, AF3 @ 8 μg/mL) | MIC ATB in combination (KPN UFR22_O, CLA @ 4 μg/mL) | MIC ATB in combination (KPN UFR23, AF2 @ 8 μg/mL) | MIC ATB in combination (KPN UFR23, CLA @ 4 μg/mL) | MIC ATB in combination (KPN UFR33, AF2 @ 8 μg/mL) | MIC ATB in combination (KPN UFR53, AF3 @ 8 μg/mL) | MIC ATB in combination (KPN UFR65, AF3 @ 8 μg/mL) | MIC ATB in combination (KPN UFR77, AF3 @ 8 μg/mL) | MIC ATB in combination (KPN UFR80, AF2 @ 8 μg/mL) | MIC ATB in combination (KPN UFR80, AF3 @ 8 μg/mL) | MIC ATB in combination (KPN UFR215, AF2 @ 8 μg/mL) | MIC ATB in combination (KPN UFR215, AF3 @ 8 μg/mL) | MIC ATB in combination (KPN UFR216, CLA @ 4 μg/mL) | MIC ATB in combination (KPN UFR217, CLA @ 4 μg/mL) | MIC ATB in combination (KPN UFR219, AF3 @ 8 μg/mL)
16 µg/mL: MIC ATB in combination (KPN 260252, AF2 @ 8 μg/mL) | MIC ATB in combination (KPN 260252, AF3 @ 8 μg/mL) | MIC ATB in combination (KPN UFR227O, AF3 @ 8 μg/mL)
8 µg/mL: MIC ATB in combination (KPN 6299, CLA @ 4 μg/mL) | MIC ATB in combination (KPN 140513, AF2 @ 8 μg/mL) | MIC ATB in combination (KPN UFR27, AF2 @ 8 μg/mL) | MIC ATB in combination (KPN UFR27, AF3 @ 8 μg/mL) | MIC ATB in combination (KPN UFR227O, AF2 @ 8 μg/mL) | MIC (strain KPN 6299, genotype TEM-1, SHV-11, OXA-163)
4 µg/mL: MIC ATB in combination (KPN UFR66, AF2 @ 8 μg/mL) | MIC ATB in combination (KPN UFR66, AF3 @ 8 μg/mL) | MIC ATB in combination (KPN UFR67, AF2 @ 8 μg/mL) | MIC ATB in combination (KPN UFR67, AF3 @ 8 μg/mL)
128 µg/mL: MIC ATB in combination (KPN 110376, CLA @ 4 μg/mL) | MIC ATB in combination (KPN 260252, CLA @ 4 μg/mL) | MIC ATB in combination (KPN ARA, CLA @ 4 μg/mL) | MIC ATB in combination (KPN UFR42, AF2 @ 8 μg/mL) | MIC ATB in combination (KPN UFR53, CLA @ 4 μg/mL) | MIC ATB in combination (KPN UFR65, CLA @ 4 μg/mL) | MIC ATB in combination (KPN UFR67, CLA @ 4 μg/mL) | MIC ATB in combination (KPN UFR77, CLA @ 4 μg/mL) | MIC ATB in combination (KPN UFR221, CLA @ 4 μg/mL)
32 µg/mL: MIC ATB in combination (KPN 140513, AF3 @ 8 μg/mL) | MIC ATB in combination (KPN 260251, CLA @ 4 μg/mL) | MIC ATB in combination (KPN UFR81, AF3 @ 8 μg/mL)
>128 µg/mL: MIC ATB in combination (KPN 121206, AF2 @ 8 μg/mL) | MIC ATB in combination (KPN 121206, AF3 @ 8 μg/mL) | MIC ATB in combination (KPN 121206, CLA @ 4 μg/mL) | MIC ATB in combination (KPN 131119, CLA @ 4 μg/mL) | MIC ATB in combination (KPN 140513, CLA @ 4 μg/mL) | MIC ATB in combination (KPN UFR27, CLA @ 4 μg/mL) | MIC ATB in combination (KPN UFR33, AF3 @ 8 μg/mL) | MIC ATB in combination (KPN UFR33, CLA @ 4 μg/mL) | MIC ATB in combination (KPN UFR42, AF3 @ 8 μg/mL) | MIC ATB in combination (KPN UFR42, CLA @ 4 μg/mL) | MIC ATB in combination (KPN UFR43, CLA @ 4 μg/mL) | MIC ATB in combination (KPN UFR46, AF2 @ 8 μg/mL) | MIC ATB in combination (KPN UFR46, AF3 @ 8 μg/mL) | MIC ATB in combination (KPN UFR46, CLA @ 4 μg/mL) | MIC ATB in combination (KPN UFR76, AF2 @ 8 μg/mL) | MIC ATB in combination (KPN UFR76, AF3 @ 8 μg/mL) | MIC ATB in combination (KPN UFR76, CLA @ 4 μg/mL) | MIC ATB in combination (KPN UFR78, AF2 @ 8 μg/mL) | MIC ATB in combination (KPN UFR78, AF3 @ 8 μg/mL) | MIC ATB in combination (KPN UFR78, CLA @ 4 μg/mL) | MIC ATB in combination (KPN UFR79, CLA @ 4 μg/mL) | MIC ATB in combination (KPN UFR81, CLA @ 4 μg/mL) | MIC ATB in combination (KPN UFR220, CLA @ 4 μg/mL) | MIC ATB in combination (KPN UFR222, CLA @ 4 μg/mL) | MIC ATB in combination (KPN UFR227O, CLA @ 4 μg/mL) | MIC (strain KPN 110376, compound alone) | MIC (strain KPN 110376, genotype TEM-1, SHV-1, CTX-M-15, OXA-1, OXA-48) | MIC (strain KPN 121206, genotype SHV-1, NDM-1) | MIC (strain KPN 131119, compound alone) | MIC (strain KPN 131119, genotype TEM-1, SHV-11, CTX-M-15, OXA-1, OXA-48) | MIC (strain KPN 140347, genotype CTX-M-15, NDM-1, antibiotic alone)
0.5 µg/mL: MIC ATB in combination (KPN 190128, CLA @ 4 μg/mL) | MIC ATB in combination (KPN 190270, AF2 @ 8 μg/mL) | MIC ATB in combination (KPN 190270, AF3 @ 8 μg/mL) | MIC ATB in combination (KPN 190425, AF2 @ 8 μg/mL) | MIC ATB in combination (KPN 270077, AF2 @ 8 μg/mL) | MIC ATB in combination (KPN 270077, CLA @ 4 μg/mL) | MIC ATB in combination (KPN 700603, AF3 @ 8 μg/mL) | MIC ATB in combination (KPN 700603, CLA @ 4 μg/mL) | MIC ATB in combination (KPN UFR24, AF2 @ 8 μg/mL) | MIC ATB in combination (KPN UFR24, AF3 @ 8 μg/mL) | MIC ATB in combination (KPN UFR65, AF2 @ 8 μg/mL) | MIC ATB in combination (KPN UFR68, AF2 @ 8 μg/mL) | MIC ATB in combination (KPN UFR68, AF3 @ 8 μg/mL) | MIC ATB in combination (KPN UFR77, AF2 @ 8 μg/mL) | MIC ATB in combination (KPN UFR80, CLA @ 4 μg/mL) | MIC ATB in combination (KPN UFR219, AF2 @ 8 μg/mL) | MIC ATB in combination (KPN UFR219, CLA @ 4 μg/mL)
64 µg/mL: MIC ATB in combination (KPN BAA-1898, CLA @ 4 μg/mL) | MIC ATB in combination (KPN UFR24, CLA @ 4 μg/mL) | MIC ATB in combination (KPN UFR25, CLA @ 4 μg/mL) | MIC ATB in combination (KPN UFR28, CLA @ 4 μg/mL) | MIC ATB in combination (KPN UFR66, CLA @ 4 μg/mL) | MIC ATB in combination (KPN UFR68, CLA @ 4 μg/mL) | MIC ATB in combination (KPN UFR81, AF2 @ 8 μg/mL)
1 µg/mL: MIC ATB in combination (KPN 190128, AF2 @ 8 μg/mL) | MIC ATB in combination (KPN 190128, AF3 @ 8 μg/mL) | MIC ATB in combination (KPN 190270, CLA @ 4 μg/mL) | MIC ATB in combination (KPN UFR215, CLA @ 4 μg/mL) | MIC ATB in combination (KPN UFR218, CLA @ 4 μg/mL)
2 µg/mL: MIC ATB in combination (KPN 160143, CLA @ 4 μg/mL) | MIC ATB in combination (KPN UFR28, AF3 @ 8 μg/mL) | MIC ATB in combination (KPN UFR79, AF2 @ 8 μg/mL) | MIC ATB in combination (KPN UFR79, AF3 @ 8 μg/mL)
